Broadly, the EC50 is the concentration giving half of the maximal effect. Usually Ki stands for a dissociation constant, usually derived from enzyme kinetics or from competition with a known ligand.

We go through 19 compounds from US6887896B1, “7-[(7-Alkoxy)-chrom-3-en-6-yl]-heptatrienoic acid and 7-[(3-alkoxy)-5,6-dihydronaphthalen-2-yl]-heptatrienoic acid derivatives having serum glucose reducing activity” (Allergan, Inc., priority 2003, dated 2005).

Some results are limits rather than exact numbers.

The target in assay [1] is T1, RXRγ (UniProt P28705).
T1 sequence (P28705 1-463): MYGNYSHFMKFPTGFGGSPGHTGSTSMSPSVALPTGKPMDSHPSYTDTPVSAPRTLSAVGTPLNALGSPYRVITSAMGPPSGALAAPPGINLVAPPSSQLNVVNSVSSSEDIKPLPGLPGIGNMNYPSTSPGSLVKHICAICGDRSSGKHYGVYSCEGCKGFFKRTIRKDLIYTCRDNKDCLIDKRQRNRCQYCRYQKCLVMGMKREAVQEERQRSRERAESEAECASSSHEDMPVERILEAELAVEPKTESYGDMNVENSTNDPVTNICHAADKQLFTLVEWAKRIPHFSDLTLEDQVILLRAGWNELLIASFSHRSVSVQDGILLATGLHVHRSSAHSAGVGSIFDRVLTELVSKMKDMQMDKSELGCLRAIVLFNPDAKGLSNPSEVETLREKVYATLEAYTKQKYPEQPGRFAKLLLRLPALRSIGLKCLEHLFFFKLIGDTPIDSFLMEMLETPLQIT
In words: holoreceptor transactivation assay, RXRγ. The conditions noted are these: for EC50: holoreceptor transactivation, read-out: RXR Trans. EC50 γ; for RXR Trans. efficacy (number in parentheses) γ: percentage compared to the standard compound. In kind it is cell-based. The text has this: (§1) Specifically, one such assay is a chimeric receptor transactivation assay which tests for agonist-like activity in the R RAPE and RAR7 receptor subtypes, and which is based on work published by Feigner, P. L. and Holm, M (1989) Focus, 112 is described in detail in U.S. Pat. No. 5,455,265. The specification of U.S. Pat. No. 5,455,265 is hereby expressly incorporated by reference. A holoreceptor transactivation assay and a ligand binding assay which measure the antagonist/agonist like activity of the compounds of the invention, or their ability to bind to the several retinoid receptor subtypes, respectively, are described in published PCT Application No. WO WO93/11755 (particularly on pages 30-33 and 37-41) published on Jun. 24, 1993, the specification of which is also incorporated herein by reference. A detailed experimental procedure for holoreceptor transactivations has been described by Heyman et al. Cell 68, 397-406, (1992); Allegretto et al. J. Biol. Chem. 268, 26625-26633, and Mangelsdorf et al. The Retinoids: Biology, Chemistry and Medicine, pp 319-349, Raven Press Ltd., New York, which are expressly incorporated herein by reference. The results obtained in this assay are expressed in EC50 numbers, as they are also in the chimeric receptor transactivation assay. The results of the ligand binding assay are expressed in Ki numbers. (See Cheng et al. Biochemical Pharmacology Vol. 22 pp 3099-3108, expressly incorporated herein by reference.)
Efficacy in a transactivation assay is expressed as a percentage of the maximum potency attained by the compound compared to a standard which, in this case, is the compound named (2E,4E,1′S,2′S)-3-methyl-5-[2′-methyl-2′-(5,5,8,8-tetramethyl-5,6,7,8-tetrahydro-naphthalen-2-yl)-cyclopropyl]-penta-2,4-dienoic acid. This standard compound is described in U.S. Pat. No. 6,114,533.
The specification of this application for patent is organized in several sections in accordance with structural Formulas A through F each of which discloses a group of preferred compounds within the scope of the invention. Tables that disclose the activity of certain exemplary compounds of the invention in the above-described RXR receptor transactivation and binding assays are found in the corresponding sections. […] The transactivation data pertaining to the activation of RXR receptors were obtained in the holoreceptor assay.
(§2) Generally speaking, in the tables disclosing the results of transactivation and binding assays the numbers in parentheses indicate efficacy as a percentage compared to the standard compound, (2E,4E,1′S,2′S)-3-methyl-5-[2′-methyl-2′-(5,5,8,8-tetramethyl-5,6,7,8-tetrahydro-naphthalen-2-yl)cyclopropyl]-penta-2,4-dienoic acid and the other numbers indicate the measured EC50 and K; in nanomolar concentration.

Assay [2] deals with T2, RARβ (Homo sapiens, UniProt P10826).
T2 sequence (P10826 1-455): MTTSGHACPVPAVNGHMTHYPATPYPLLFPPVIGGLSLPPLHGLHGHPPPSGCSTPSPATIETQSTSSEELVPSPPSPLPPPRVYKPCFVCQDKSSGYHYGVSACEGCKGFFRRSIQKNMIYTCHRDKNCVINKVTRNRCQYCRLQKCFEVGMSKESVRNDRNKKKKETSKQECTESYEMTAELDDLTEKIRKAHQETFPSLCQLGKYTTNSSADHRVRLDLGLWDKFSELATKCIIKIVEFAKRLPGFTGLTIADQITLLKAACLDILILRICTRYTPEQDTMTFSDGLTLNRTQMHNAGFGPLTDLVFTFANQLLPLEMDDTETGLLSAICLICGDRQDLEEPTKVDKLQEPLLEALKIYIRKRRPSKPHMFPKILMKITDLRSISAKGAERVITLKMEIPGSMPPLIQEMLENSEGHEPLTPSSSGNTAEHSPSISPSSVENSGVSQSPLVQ
In words: ligand binding assay, RARβ. The conditions noted are these: read-out: RAR Bind. Ki β.
Source text: as §1, §2

On to `COc1cc2c(cc1\C(C)=C(F)/C=C/C(C)=C/C(=O)O)C(C(C)C)=CC(C)(C)O2` [Compound 121, (2E,4E,6E)-6-Fluoro-7-(4-isopropyl-7-methoxy-2,2-dimethyl-2H-chromen-6-yl)-3-methyl-octa-2,4,6-trienoic acid], for which, in assay [1], the EC50 was 0.01 µM and the “RXR Trans. efficacy (number in parentheses) γ” value (“RXR Trans. efficacy” for short) is reported as 79%. Moreover, the Ki in assay [2] came to 2.1 µM.
As to `CCOc1c(\C(=C/C=C/C(C)=C/C(=O)O)CC)cc2c(c1Cl)OC(C)(C)C=C2C(C)C` [Compound 51], in assay [1], the EC50 amounted to 0.022 µM and the “RXR Trans. efficacy” value was 13%. The Ki in assay [2] was found to be 1.4 µM.
In the case of `CCCOc1cc2c(cc1\C(C)=C(F)/C=C/C(C)=C/C(=O)O)C(C(C)C)=CCC2(C)C` [Compound A-80], in assay [2], the Ki came out at 0.552 µM.
With `CCOc1cc2c(cc1\C(=C/C=C/C(C)=C/C(=O)O)CC)C(C)=CC(C)(C)O2` [Compound 46, 7-(7-Ethoxy-2,2,4-trimethyl-2H-chromen-6-yl)-3-methyl-nona-2E,4E,6Z-trienoic acid], the EC50 in assay [1] was > 1 µM. Further, the Ki in assay [2] came out at 0.614 µM.
For the compound `CC/C(=C/C=C/C(C)=C/C(=O)O)c1cc2c(cc1OC)OC(C)(C)C=C2C(C)C` [Compound 44, 7-(4-Isopropyl-7-methoxy-22-dimethyl-2H-chromen-6-yl)-3-methyl-nona-2E,4E,6Z-trienoic acid], in assay [1], the concentration for a half-maximal effect (EC50) was 0.0004 µM and the “RXR Trans. efficacy” value stood at 97%. Also, the Ki in assay [2] was determined as 0.617 µM.
On to `CCOc1cc2c(cc1\C(CC)=C(F)/C=C/C(C)=C/C(=O)O)C(C(C)(C)C)=CCC2(C)C` [Compound A-83, (2E,4E,6E)-7-(8-tert-Butyl-3-ethoxy-5,5-dimethyl-5,6-dihydronaphthalen-2-yl)-6-fluoro-3-methyl-nona-2,4,6-trienoic acid], for which, in assay [1], the EC50 came out at 0.002 µM and the “RXR Trans. efficacy” value is given as 7%. The Ki in assay [2] came to 0.261 µM.
With `COc1c(\C(C)=C/C=C/C(C)=C/C(=O)O)cc2c(c1Cl)OC(C)(C)C=C2C(C)C` [Compound 49, 7-(8-Chloro-4-isopropyl-7-methoxy-2,2-dimethyl-2H-chromen-6-y)-3-methyl-octa-2E,4E,6Z-trienoic acid], in assay [1], the EC50 is 0.0003 µM and the “RXR Trans. efficacy” value came to 97%. Besides, in assay [2], the Ki amounted to 4.1 µM.
In the case of `CCOc1c(\C(C)=C/C=C/C(C)=C/C(=O)O)cc2c(c1Cl)OC(C)(C)C=C2C(C)C` [Compound 50, 7-(8-Chloro-4-isopropyl-7-ethoxy-2,2-dimethyl-2H-chromen-6-yl)-3-methyl-octa-2E,4E,6Z-trienoic acid], in assay [1], the EC50 stood at 0.005 µM and the “RXR Trans. efficacy” value was found to be 47%. In addition, the Ki in assay [2] stood at 1.3 µM.
Regarding `CCOc1cc2c(cc1\C(C)=C/C=C/C(C)=C/C(=O)O)C(C(C)(C)C)=CCC2(C)C` [Compound A-17, 7-(8-tert-Butyl-3-ethyloxy-5,5-dimethyl-5,6-dihydronaphthalen-2-yl)-3-methyl-octa-2E,4E,6Z-trienoic acid], in assay [1], the EC50 was determined as 0.0009 µM and the “RXR Trans. efficacy” value is recorded as 73%. In addition, the Ki in assay [2] turned out to be 0.401 µM.
Take `CCCOc1cc2c(cc1\C(C)=C(F)/C=C/C(C)=C/C(=O)O)C(C(C)(C)C)=CCC2(C)C` [Compound A-84, (2E,4E,6E)-6-Fluoro-3-(4,$dimethyl-6-n-propoxy-1-tert-butyl-3,4-dihydronaphthalen-7-yl)-3-methyl-2,4,6-octatrienoic acid]: in assay [2], the Ki turned out to be 0.62 µM.
As to `CC(/C=C/C(F)=C(/C)c1cc2c(c(Cl)c1OC(C)C)OC(C)(C)C=C2C(C)C)=C\C(=O)O` [Compound 174], in assay [1], the EC50 came out at 0.114 µM and the “RXR Trans. efficacy” value is recorded as 6%. The Ki in assay [2] stood at 1.3 µM.
For `CCOc1cc2c(cc1\C(C)=C(F)/C=C/C(C)=C/C(=O)O)C(CC)=CC(C)(C)O2` [Compound 123, 7-(7-Ethoxy-4-ethyl-2,2-dimethyl-2H-chromen-6-yl)-6-fluoro-3-methyl-octa-2E,4E,6E-trienoic acid], in assay [1], the EC50 was > 1 µM. In assay [2], the inhibition constant Ki is > 10 µM.
`CCC1=CC(C)(C)Oc2cc(OC)c(\C(C)=C(F)/C=C/C(C)=C/C(=O)O)cc21` [Compound 120, 7-(4Ethyl-7-methoxy-2,2-dimethyl-2H-chromen-6-yl)-6-fluoro-3-methyl-octa-2E,4E,6E-trienoic acid]: the EC50 in assay [1] is > 10 µM. In addition, the inhibition constant (Ki) in assay [2] came to 8.1 µM.
Regarding `COc1c(\C(C)=C(F)/C=C/C(C)=C/C(=O)O)cc2c(c1Cl)OC(C)(C)C=C2C(C)C` [Compound 170, 7-(8-Chloro-4-isopropyl-7-methoxy-2,2-dimethyl-2H-chromen-6-yl)-6-fluoro-3-methyl-octa-2E,4E,6E-trienoic acid], in assay [1], the EC50 was found to be 0.0002 µM and the “RXR Trans. efficacy” value came to 109%. Also, the Ki in assay [2] was 2.3 µM.
`CCOc1cc2c(cc1\C(=C/C=C/C(C)=C/C(=O)O)CC)C(C(C)(C)C)=CCC2(C)C` [Compound A-18, 7-(8-tert-butyl-3-ethyoxy-5,5-dimethyl-5,6-dihydronaphthalen-2-yl)-3-methyl-nona-2E,4E,6Z-trienoic acid]: in assay [1], the EC50 came out at 0.0027 µM and the “RXR Trans. efficacy” value is 11%. Also, the Ki in assay [2] came out at 0.137 µM.
`CCOc1cc2c(cc1\C(CC)=C(F)/C=C/C(C)=C/C(=O)O)C(C)=CC(C)(C)O2` [Compound 132, 7-(7-Ethoxy-2,2,4-trimethyl-2H-chromen-6-yl)-6-fluoro-3-methyl-nona-2E,4E,6E-trienoic acid]: the EC50 in assay [1] was > 1 µM. Moreover, the Ki in assay [2] came out at 0.548 µM.
With `CCOc1cc2c(cc1\C(C)=C(F)/C=C/C(C)=C/C(=O)O)C(C)=CCC2(C)C`, in assay [1], the EC50 amounted to 0.003 µM and the “RXR Trans. efficacy” value was found to be 70%. Further, the Ki in assay [2] is 0.359 µM.
For `CC/C(=C(F)/C=C/C(C)=C/C(=O)O)c1cc2c(cc1OC)OC(C)(C)C=C2C(C)(C)C` [Compound 131, 7-(4-tert-Butyl-7-methoxy-2,2-dimethyl-2H-chromen-6-yl)-6-fluoro-3-methyl-nona-2E,4E,6E-trienoic acid], in that order: 0.008 µM, 53% and 0.843 µM.
Consider `CC(/C=C/C(F)=C(/C)c1cc2c(cc1OCC1CC1)C(C)(C)CC=C2C(C)C)=C\C(=O)O` [Compound A-81, (2E,4E,6E)-6-Fluoro-3-(4-dimethyl-6-(cyclopropyl)methoxy-1-isopropyl-3,4-dihydronaphthalen-7-yl)-3-methyl-2,4.6-octa-trienoic acid], for which, in assay [2], the Ki worked out at 0.927 µM.
